According to patent US10751358B2, “Multitargeted nucleoside derivatives” (priority 2017, dated 2020):

How the values were obtained:
[1] = tested on: KG-1 human acute myeloid leukemia cells; assay: Cell viability assay of Promega, KG-1 cells; format: cell-based; details: for IC50: Homo sapiens, cell viability; for Ratio (IC50-value of capecitabine/IC50-value of test compound): fold potency versus capecitabine
From the text: Using the cell viability assay of Promega, the following IC50-values were obtained against KG-1 human acute myeloid leukemia cells (Table 3). The nucleoside carbamate capecitabine (Xeloda®) is included for comparison).

[2] = tested on: human colon cancer HCT-116 cells; assay: HCT-116 xenograft test for in vivo oral anticancer activity; design: species or system mice
From the text: This example provides a description of HCT-116 xenograft test for in vivo oral anticancer activity of 6a.
Forty athymic nude mice (NCr nude, female, 5-6 weeks old, 20-25 g, Taconic) were inoculated with 6×10^6 exponentially growing human colon cancer HCT-116 cells, 1:1 ratio with Matrigel in 100 microliter into the right flank. Over the following 10 days, tumors reached a volume of 70 to 130 mm^3. Tumor volume were caliper-measured and calculated as length×width×width/2. Thirty mice were randomly allocated into three groups: (1) vehicle control group, (2) 6a test group, and (3) capecitabine (Cayman Chemical Co.) positive control group, with 10 mice into each group. Dosing solutions of each were prepared and kept refrigerated during the course of the test. Each mouse was dosed daily by oral administration.
After starting the dosing, body weights and tumor size measurements were recorded twice weekly to the end of the test.

OVCAR-8 = assay: NCI panel growth inhibition, OVCAR-8; format: cell-based; details: Homo sapiens, 10 micromolar
From the text: (§1) A sample of the variety of human cancer cell lines, whose growth was inhibited more than 50% by 10 micromolar concentration of the prototype drug 6a, is shown in Table 2.
(§2) The description of the human cancer cell lines used is as follows: ACHN, human renal adenocarcinoma; HL-60(TB), human acute myeloid leukemia; HCT-116, human colon carcinoma; HOP-62, human adenocarcinoma (non-small cell lung cancer); M14, human metastatic malignant melanoma; MCF7, human mammary adenocarcinoma; OVCAR-8, human ovarian carcinoma.

[3] = tested on: National Cancer Institute's panel of human cell lines; assay: National Cancer Institute's panel of human cell lines in culture; format: cell-based; details: 10 micromolar, cell lines of Table 2, read-out: growth inhibition of the sampled human cancer cell lines
From the text: as §1

MCF-7 = assay: NCI panel growth inhibition, MCF-7; format: cell-based; details: Homo sapiens, MCF7, 10 micromolar
From the text: as §1, §2

HL60 = assay: NCI panel growth inhibition, HL60; format: cell-based; details: Homo sapiens, HL-60, 10 micromolar
From the text: as §1, §2

HCT-116 = assay: NCI panel growth inhibition, HCT-116; format: cell-based; details: Homo sapiens, 10 micromolar
From the text: as §1, §2

M14 = assay: NCI panel growth inhibition, M14; format: cell-based; details: Homo sapiens, 10 micromolar
From the text: as §1, §2

ACHN = assay: NCI panel growth inhibition, ACHN; format: cell-based; details: Homo sapiens, 10 micromolar
From the text: as §1, §2

NCI-H522 = assay: NCI panel growth inhibition, NCI-H522; format: cell-based; details: Homo sapiens, 10 micromolar
From the text: as §1, §2

[4] = target: T1, ribonucleotide reductase (RR) (Homo sapiens, UniProt P23921); assay: Enzyme inhibition by intracellular metabolite: ribonucleotide reductase; format: biochemical; details: major target; inactivation by covalent bond formation at the active site
T1 sequence (P23921 1-792): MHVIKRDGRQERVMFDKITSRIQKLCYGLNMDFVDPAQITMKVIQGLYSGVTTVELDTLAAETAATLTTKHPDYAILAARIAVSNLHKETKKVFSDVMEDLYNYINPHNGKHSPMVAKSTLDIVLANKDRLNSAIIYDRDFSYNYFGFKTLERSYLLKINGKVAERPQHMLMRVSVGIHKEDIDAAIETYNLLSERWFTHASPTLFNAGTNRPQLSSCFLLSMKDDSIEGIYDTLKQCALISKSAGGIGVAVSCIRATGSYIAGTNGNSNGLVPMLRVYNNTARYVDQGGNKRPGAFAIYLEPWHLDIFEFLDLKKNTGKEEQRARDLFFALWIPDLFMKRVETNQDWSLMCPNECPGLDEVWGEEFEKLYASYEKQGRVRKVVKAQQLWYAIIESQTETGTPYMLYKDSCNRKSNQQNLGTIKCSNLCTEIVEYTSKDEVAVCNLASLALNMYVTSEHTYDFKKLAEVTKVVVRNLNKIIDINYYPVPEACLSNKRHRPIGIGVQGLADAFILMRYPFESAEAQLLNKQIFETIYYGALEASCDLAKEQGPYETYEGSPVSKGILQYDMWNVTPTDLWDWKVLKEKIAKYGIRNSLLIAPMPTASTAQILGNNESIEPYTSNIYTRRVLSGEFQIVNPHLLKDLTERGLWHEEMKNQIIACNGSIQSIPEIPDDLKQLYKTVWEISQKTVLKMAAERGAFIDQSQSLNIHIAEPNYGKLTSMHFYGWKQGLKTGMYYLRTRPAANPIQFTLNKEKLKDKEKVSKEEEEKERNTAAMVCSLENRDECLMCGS
T1 sequence (P31350 1-389 partner): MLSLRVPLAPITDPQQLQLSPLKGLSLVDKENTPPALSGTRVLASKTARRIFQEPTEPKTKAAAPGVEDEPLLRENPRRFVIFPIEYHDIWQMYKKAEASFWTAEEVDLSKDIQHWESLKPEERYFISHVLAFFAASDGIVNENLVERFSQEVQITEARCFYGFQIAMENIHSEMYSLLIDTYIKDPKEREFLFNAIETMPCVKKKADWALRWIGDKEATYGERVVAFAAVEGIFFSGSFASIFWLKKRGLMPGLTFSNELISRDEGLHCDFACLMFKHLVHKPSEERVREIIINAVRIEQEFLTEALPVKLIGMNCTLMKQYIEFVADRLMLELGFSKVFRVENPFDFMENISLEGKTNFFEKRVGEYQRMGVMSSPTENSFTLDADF
From the text: (§3) Several intracellular targets of the present disclosure were identified as essential enzymes required for the biosynthesis and function of DNA. These enzymes are susceptible for inhibition by a multitude of cellular metabolites of the present disclosure, contributing to the observed cytotoxicity.
(§4) The inhibition of the enzyme targets, TS, RR, and MTase is irreversible, due to mechanism-based inactivation caused by the inhibitory metabolites. The molecular mechanism of the inactivation involves covalent bond formation with the sulfhydryl groups of the active site cysteine residues essential for enzyme activity (see Examples 6, 7 and 8).
F3dCDP acts as a suicide substrate of the enzyme forming a binary complex between the inhibitor and the enzyme via a covalent bond to the SH-group of the active site cysteine residue: […]

[5] = target: T2, deoxycytidylate deaminase (DCTD) (Homo sapiens, UniProt P32321); assay: Enzyme inhibition by intracellular metabolite: deoxycytidylate deaminase; format: biochemical; details: minor target
T2 sequence (P32321 1-178): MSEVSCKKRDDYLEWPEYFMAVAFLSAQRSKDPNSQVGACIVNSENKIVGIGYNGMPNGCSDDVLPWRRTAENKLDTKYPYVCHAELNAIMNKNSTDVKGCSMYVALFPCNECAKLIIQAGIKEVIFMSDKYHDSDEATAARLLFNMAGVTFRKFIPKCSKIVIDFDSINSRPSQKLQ
From the text: as §3
Intracellular esterase hydrolysis of the 5′-substituent of Formula I (R″=phosphorodiamidate), followed by cyclization leads to a cyclic phosphoester intermediate that collapses into a monophosphoramidate. Further hydrolysis by the phosphoramidase activity of HINT1 results in the formation of F3dCMP, the first intracellular phosphorylated metabolite of compounds of Formula I that serves as a substrate and competitive inhibitor of the enzyme dCMP deaminase, and is a precursor of all the other inhibitory nucleotides described above (see Table 1).

[6] = target: T3, DNA polymerase alpha (Pol α) (Homo sapiens, UniProt P09884); assay: Enzyme inhibition by intracellular metabolites: DNA polymerase alpha; format: biochemical; details: major target; inhibition by DNA chain termination and/or DNA fragmentation
T3 sequence (P09884 1-1462): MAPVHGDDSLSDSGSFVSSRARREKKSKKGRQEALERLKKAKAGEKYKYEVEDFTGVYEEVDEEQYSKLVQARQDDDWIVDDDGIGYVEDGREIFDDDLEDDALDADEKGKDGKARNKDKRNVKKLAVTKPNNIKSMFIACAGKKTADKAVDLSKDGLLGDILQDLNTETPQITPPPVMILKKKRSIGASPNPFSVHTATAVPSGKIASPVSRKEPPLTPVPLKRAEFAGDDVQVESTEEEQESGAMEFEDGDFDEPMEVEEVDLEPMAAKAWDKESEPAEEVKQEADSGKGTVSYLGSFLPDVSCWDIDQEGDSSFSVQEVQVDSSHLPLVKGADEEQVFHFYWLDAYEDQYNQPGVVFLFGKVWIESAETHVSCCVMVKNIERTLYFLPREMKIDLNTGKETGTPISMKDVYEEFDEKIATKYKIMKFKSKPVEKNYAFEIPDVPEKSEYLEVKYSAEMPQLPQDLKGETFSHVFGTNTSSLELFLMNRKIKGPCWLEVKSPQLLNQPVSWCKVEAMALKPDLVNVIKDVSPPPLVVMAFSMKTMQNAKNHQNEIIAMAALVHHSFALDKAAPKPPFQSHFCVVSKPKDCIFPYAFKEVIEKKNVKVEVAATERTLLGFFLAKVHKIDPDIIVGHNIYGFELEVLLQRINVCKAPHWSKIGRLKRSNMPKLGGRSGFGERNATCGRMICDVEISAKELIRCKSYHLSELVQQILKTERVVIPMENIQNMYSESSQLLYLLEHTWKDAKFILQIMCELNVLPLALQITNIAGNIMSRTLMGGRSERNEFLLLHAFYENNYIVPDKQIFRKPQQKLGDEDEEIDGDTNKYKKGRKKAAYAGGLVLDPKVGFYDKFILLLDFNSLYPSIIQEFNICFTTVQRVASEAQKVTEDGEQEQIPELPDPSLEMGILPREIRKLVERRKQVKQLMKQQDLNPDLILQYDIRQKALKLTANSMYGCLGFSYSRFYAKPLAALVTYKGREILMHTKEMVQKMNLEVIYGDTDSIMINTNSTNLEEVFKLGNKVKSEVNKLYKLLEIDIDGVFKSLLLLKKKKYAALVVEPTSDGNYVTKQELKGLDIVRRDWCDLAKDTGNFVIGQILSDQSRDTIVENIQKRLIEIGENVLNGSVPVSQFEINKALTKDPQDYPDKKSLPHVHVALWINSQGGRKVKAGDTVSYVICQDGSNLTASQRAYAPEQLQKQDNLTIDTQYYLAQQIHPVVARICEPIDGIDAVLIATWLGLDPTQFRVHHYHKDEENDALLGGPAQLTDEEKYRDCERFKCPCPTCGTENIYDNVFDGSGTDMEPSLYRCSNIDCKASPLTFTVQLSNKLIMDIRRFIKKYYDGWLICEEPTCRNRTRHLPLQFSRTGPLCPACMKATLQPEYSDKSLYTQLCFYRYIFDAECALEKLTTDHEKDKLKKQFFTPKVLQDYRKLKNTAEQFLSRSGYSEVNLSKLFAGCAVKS
From the text: as §3

[7] = target: thymidylate synthase (TS) (Homo sapiens, UniProt P04818); assay: Enzyme inhibition by intracellular metabolite: thymidylate synthase; format: biochemical; details: major target; inactivation by covalent bond formation at the active site
thymidylate synthase (TS), sequence (P04818 whole entry): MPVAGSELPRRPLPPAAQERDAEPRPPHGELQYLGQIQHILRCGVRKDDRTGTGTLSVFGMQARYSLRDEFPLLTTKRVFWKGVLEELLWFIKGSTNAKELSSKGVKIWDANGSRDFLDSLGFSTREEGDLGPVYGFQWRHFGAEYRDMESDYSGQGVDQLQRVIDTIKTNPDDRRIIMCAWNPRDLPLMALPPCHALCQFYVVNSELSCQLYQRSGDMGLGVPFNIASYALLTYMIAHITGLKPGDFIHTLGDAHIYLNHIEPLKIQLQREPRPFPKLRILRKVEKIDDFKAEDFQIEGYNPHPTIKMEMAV
From the text: as §3, §4
F3dUMP acts as a suicide substrate of the enzyme thymidylate synthase by forming a covalent ternary complex with the enzyme and the cofactor 5,10-methylenetetrahydrofolate. The binding of the inhibitor to the enzyme is by a covalent bond to the SH-group of the active site cysteine residue involved in catalysis: […]

SMILES: CCCCCOC(=O)Nc1nc(=O)n([C@@H]2O[C@H](C)[C@@H](O)[C@H]2O)cc1F [Capecitabine, capecitabine, reference compound]
- IC50 [1]: 8920 ± 1540 nM
- Ratio (IC50-value of capecitabine/IC50-value of test compound) [1]: 1
- dose of capecitabine required for anticancer activity comparable to 6a, relative to dose of 6a ([2]; capecitabine 100 mg/kg vs 6a 25 mg/kg, oral): about 4 times

SMILES: Nc1nc(=O)n([C@@H]2O[C@H](CO)[C@@H](O)C2(F)F)cc1F [Compound 5, 2′-Deoxy-2′,2′,5-trifluorocytidine]
- IC50 [1]: 34.1 ± 5.27 nM
- Ratio (IC50-value of capecitabine/IC50-value of test compound) [1]: 253

SMILES: CCCCCOC(=O)Nc1nc(=O)n([C@@H]2O[C@H](CO)[C@@H](O)C2(F)F)cc1F [Compound 6a, N^4-Pentyloxycarbonyl-2′-deoxy-2′,2′,5-trifluorocytidine]
- inhibition at 10 µM (OVCAR-8): 71.6%
- inhibition at 10 µM [3]: > 50%
- inhibition at 10 µM (MCF-7): 51.9%
- IC50 [1]: 129 ± 10.7 nM
- Ratio (IC50-value of capecitabine/IC50-value of test compound) [1]: 69
- inhibition at 10 µM (HL60): 75.8%
- inhibition at 10 µM (HCT-116): 63.5%
- inhibition at 10 µM (M14): 85.9%
- inhibition at 10 µM (ACHN): 86.4%
- in vivo oral anticancer activity (growth of human colon cancer in mice) ([2]; athymic nude mice, daily oral dosing, 25 mg/kg): orally active in vivo
- inhibition at 10 µM (NCI-H522): 61.1%

SMILES: Nc1nc(=O)n([C@@H]2O[C@H](COP(=O)(O)OP(=O)(O)O)[C@@H](O)C2(F)F)cc1F [Compound F3dCDP, 2′,2′,5-trifluorodeoxycytidine diphosphate]
- Reversibility of inhibition of RR [4]: Irreversible*

SMILES: Nc1nc(=O)n([C@@H]2O[C@H](COP(=O)(O)O)[C@@H](O)C2(F)F)cc1F [Compound F3dCMP, 2′,2′,5-trifluorodeoxycytidine monophosphate]
- Reversibility of inhibition of DCTD [5]: reversible

SMILES: Nc1nc(=O)n([C@@H]2O[C@H](COP(=O)(O)OP(=O)(O)OP(=O)(O)O)[C@@H](O)C2(F)F)cc1F [Compound F3dCTP, 2′,2′,5-trifluorodeoxycytidine triphosphate]
- Reversibility of inhibition of Pol α [6]: Irreversible**

SMILES: O=c1[nH]c(=O)n([C@@H]2O[C@H](COP(=O)(O)O)[C@@H](O)C2(F)F)cc1F [Compound F3dUMP, 2′,2′,5-trifluorodeoxyuridine monophosphate]
- Reversibility of inhibition of TS [7]: Irreversible*

SMILES: O=c1[nH]c(=O)n([C@@H]2O[C@H](COP(=O)(O)OP(=O)(O)OP(=O)(O)O)[C@@H](O)C2(F)F)cc1F [Compound F3dUTP, 2′,2′,5-trifluorodeoxyuridine triphosphate]
- Reversibility of inhibition of Pol α [6]: Irreversible**

SMILES: O=c1[nH]c(=O)n([C@H]2C[C@H](O)[C@@H](CO)O2)cc1C(F)(F)F [Compound F3dUrd]
- substrate activity for thymidine phosphorylase (cleavage to produce FU) (thymidine phosphorylase): did not serve as a substrate for thymidine phosphorylase

SMILES: O=c1[nH]c(=O)n([C@H]2C[C@H](O)[C@@H](CO)O2)cc1F [Floxuridine, reference compound]
- substrate activity for thymidine phosphorylase (cleavage to produce FU) (thymidine phosphorylase): rapidly cleaved by thymidine phosphorylase to produce FU
